Laboratory results: US20110178104A1, “Anti-Heparin Compounds” (POLYMEDIX INC., priority 2010, published 2011)
Read-outs that look alike come from different tables or passages of the source. Starred links: 1 amine or outer side, 2 acyl side, 3 side chain; linkers in the order of their positions; H or OH if unused. Non-standard residues stand in square brackets, D forms with d. Residues, ends and D or L forms follow the SMILES beside them. *: point of attachment. NH(3-CONH2-4-OMe-phenyl) = COc1ccc(N*)cc1C(N)=O; 3Abz(6-OMe) = COc1ccc(N[*:1])cc1C(=O)[*:2]

Legend:
[1] = system: unfractionated heparin (UFH); experiment: aPTT clotting assay, UFH 0.2 U/mL in plasma (Example 7); assay type: biochemical
Method: aPTT clotting Assay. Unfractionated heparin was mixed with plasma at a final concentration of 0.2 U/mL. […] The ACL Elite Hemostasis analyzer (Beckman Coulter™) was used to add aPTT reagent (HemosIL SynthASil) to supplemented plasma. Clotting was initiated by addition of CaCl2 and time to clot was recorded.

[2] = system: enoxaparin (ENOX); experiment: FXa chromogenic assay (absence of plasma), enoxaparin
[3] = system: fondaparinux (FONDAPX); experiment: FXa chromogenic assay (absence of plasma), fondaparinux
Method: Human antithrombin was mixed with an anticoagulant agent (a LMWH or fondaparinux); final concentrations were 0.22 μg/mL for the LMWHs and 0.07 μg/mL for fondaparinux. […] Absorbance was read every 30 seconds over a 4 minute period in a SpectraMax 250 instrument (Molecular Devices, Inc.). EC50 values are determined by a curve-fit program (SoftMax Pro) using the following formula:
FXa Chromogenic Assay (absence of plasma). Human antithrombin was mixed with an anticoagulant (a LMWH or fondaparinux); final concentrations were 0.1 μg/mL for the LMWHs and 0.02 μg/mL for fondaparinux. […] Absorbance was read every 30 seconds over a 4 minute period in a SpectraMax 250 instrument (Molecular Devices Inc.™) The slope of absorbance vs time was calculated for each compound concentration. EC50 values were determined using a curve fit program (GraphPad Prism 5).

[4] = enoxaparin 0.1 μg/mL, absence of plasma
[5] = fondaparinux 0.02 μg/mL, absence of plasma

| Structure (SMILES) | UFH (aPTT) EC50 ([1]; UFH 0.2 U/mL in plasma) | ENOX (FXa) EC50 [2, 4] | FONDAPX (FXa) EC50 [3, 5] | UFH (aPTT) EC50 [1] | ENOX (FXa) EC50 [2] | FONDAPX (FXa) EC50 [3] |
| --- | --- | --- | --- | --- | --- | --- |
| COc1ccc(NC(=O)[C@H](CCCCN)NC(=O)c2cc(NC(=O)[C@H](CCCCN)NC(=O)c3cc(NC(=O)[C@H](CCCCN)NC(=O)c4cc(NC(=O)[C@@H](N)CCCCN)ccc4OC)ccc3OC)ccc2OC)cc1C(=O)Nc1cccc(C(=O)O)c1 [Compound 144] | 3.13 µg/mL | 0.244 µg/mL | 1.051 µg/mL |  |  |  |
| COc1ccc(NC(=O)[C@H](CCCCN)NC(=O)c2cc(NC(=O)[C@H](CCCCN)NC(=O)c3cc(NC(=O)[C@H](CCCCN)NC(=O)c4cc(NC(=O)[C@@H](N)CCCCN)ccc4OC)ccc3OC)ccc2OC)cc1C(=O)N[C@@H](CCCNC(N)=O)C(=O)O [Compound 142] | 2.88 µg/mL | 0.592 µg/mL | 7.045 µg/mL |  |  |  |
| COc1ccc(NC(=O)[C@H](CCCNC(=N)N)NC(=O)c2cc(NC(=O)[C@H](CCCNC(=N)N)NC(=O)c3cc(NC(=O)[C@H](CCCNC(=N)N)NC(=O)c4cc(NC(=O)[C@H](C)NC(=O)CCCCNC(=N)N)ccc4OC)ccc3OC)ccc2OC)cc1C(N)=O [Compound 92] | 7.17 µg/mL | 0.55 µg/mL | 1.40 µg/mL |  |  |  |
| COc1ccc(NC(=O)[C@H](CCCCN)NC(=O)c2cc(NC(=O)[C@H](CCCCN)NC(=O)c3cc(NC(=O)[C@H](CCCCN)NC(=O)c4cc(N)cc(C(F)(F)F)c4)ccc3OC)ccc2OC)cc1C(N)=O [Compound 125] | >10 µg/mL | 0.9448 µg/mL | 3.114 µg/mL |  |  |  |
| COc1cc(OC)c(C(=O)Nc2cc(C(F)(F)F)cc(NC(=O)CCCCNC(=N)N)c2SCCN)cc1C(=O)Nc1cc(C(F)(F)F)cc(NC(=O)CCCCNC(=N)N)c1SCCN [Compound 1] | inactive | 0.18 µg/mL | inactive |  |  |  |
| COc1ccc(NC(=O)[C@H](CCCCN)NC(=O)c2cc(NC(=O)[C@H](CCCCN)NC(=O)c3cc(NC(=O)[C@H](CCCCN)NC(=O)c4cc(NC(=O)[C@@H](N)CCCCN)ccc4OC)ccc3OC)ccc2OCC(=O)O)cc1C(N)=O [Compound 117] | 1.94 µg/mL | 0.9281 µg/mL | 7.052 µg/mL |  |  |  |
| COc1ccc(NC(=O)[C@@H](CCCNC(=N)N)NC(=O)c2cc(NC(=O)[C@@H](CCCNC(=N)N)NC(=O)c3cccc(NC(=O)[C@@H](CCCNC(=N)N)NC(=O)c4cc(NC(=O)[C@H](N)CCCNC(=N)N)ccc4OC)c3)ccc2OC)cc1C(N)=O [Compound 69] | 1.58 µg/mL | 0.19 µg/mL | 2.74 µg/mL |  |  |  |
| COc1cc(OC)c(C(=O)N[C@H]2CC[C@H](NC(=O)c3cc(C(=O)NCCN(C)C)c(OCCCCCNC(=N)N)cc3OCCCCCNC(=N)N)CC2)cc1C(=O)N[C@H]1CC[C@@H](NC(=O)c2cc(C(=O)NCCN(C)C)c(OCCCCCNC(=N)N)cc2OCCCCCNC(=N)N)CC1 [Compound 104] | >10 µg/mL | 0.36 µg/mL | 2.02 µg/mL |  |  |  |
| COc1ccc(NC(=O)[C@H](CCCCN)NC(=O)c2cc(NC(=O)[C@H](CCCCN)NC(=O)c3cc(NC(=O)[C@H](CCCCN)NC(=O)c4cc(NC(=O)[C@@H](N)CCCCN)ccc4OC)ccc3SC)ccc2OC)cc1C(N)=O [Compound 132] | >10 µg/mL | >20 µg/mL | inactive |  |  |  |
| COc1cc(OC)c(C(=O)N[C@H]2CC[C@H](NC(=O)c3cc(C(=O)NCCN(C)C)c(OCCCCCN)cc3OCCCCCN)CC2)cc1C(=O)NC1CCC(NC(=O)c2cc(C(=O)NCCN(C)C)c(OCCCCCN)cc2OCCCCCN)CC1 (stereo partly drawn) [Compound 2] | 6.25 µg/mL | 2.26 µg/mL | inactive |  |  |  |
| COc1cc(OC)c(C(=O)N[C@H]2CC[C@H](NC(=O)c3cc(C(=O)NCCN(C)C)c(OCCCCCNC(=N)N)cc3OCCCCCNC(=N)N)CC2)cc1C(=O)NC1CCC(NC(=O)c2cc(C(=O)NCCN(C)C)c(OCCCCCNC(=N)N)cc2OCCCCCNC(=N)N)CC1 (stereo partly drawn) [Compound 3] | 1.76 µg/mL | 0.25 µg/mL | 1.34 µg/mL |  |  |  |
| COc1ccc(NC(=O)[C@@H](CCCNC(=N)N)NC(=O)c2cc(NC(=O)[C@@H](CCCNC(=N)N)NC(=O)c3cc(NC(=O)[C@@H](CCCNC(=N)N)NC(=O)c4cc(NC(=O)[C@H](N)CCCNC(=N)N)ccc4OCCNC(=N)N)ccc3OC)ccc2OC)cc1C(N)=O [Compound 19] | 2.11 µg/mL | 0.27 µg/mL | 3.35 µg/mL |  |  |  |
| COc1cc(OC)c(C(=O)N[C@H]2CC[C@@H](NC(=O)c3cc(C(=O)NCCN(C)C)c(OCCNC(=N)N)cc3OCCNC(=N)N)CC2)cc1C(=O)N[C@H]1CC[C@@H](NC(=O)c2cc(C(=O)NCCN(C)C)c(OCCNC(=N)N)cc2OCCNC(=N)N)CC1 [Compound 105] | Inactive | 2.07 µg/mL | >20 µg/mL |  |  |  |
| COc1ccc(NC(=O)[C@@H](CCCN)NC(=O)c2cc(NC(=O)[C@@H](CCCNC(=N)N)NC(=O)c3cc(NC(=O)[C@@H](CCCNC(=N)N)NC(=O)c4cc(NC(=O)[C@H](N)CCCN)ccc4OC)ccc3OC)ccc2OC)cc1C(N)=O [Compound 30] |  |  |  | 1.52 µg/mL | 0.28 µg/mL | 3.99 µg/mL |
| COc1ccc(NC(=O)[C@@H](CCCNC(=N)N)NC(=O)c2cc(NC(=O)[C@@H](CCCNC(=N)N)NC(=O)c3cc(NC(=O)[C@H](C)NC(=O)[C@@H](CCCNC(=N)N)NC(=O)c4cc(NC(=O)[C@H](N)CCCNC(=N)N)ccc4OC)ccc3OC)ccc2OC)cc1C(N)=O [Compound 73] (H-[dR][3Abz(6-OMe)][dR]A[3Abz(6-OMe)][dR][3Abz(6-OMe)][dR]-{NH(3-CONH2-4-OMe-phenyl)}) | 5.16 µg/mL | 2.49 µg/mL | 17.92 µg/mL |  |  |  |
| COc1ccc(NC(=O)[C@H](CCCNC(N)=O)NC(=O)c2cc(NC(=O)[C@H](CCCCN)NC(=O)c3cc(NC(=O)[C@H](CCCCN)NC(=O)c4cc(NC(=O)[C@@H](N)CCCCN)ccc4OC)ccc3OC)ccc2OC)cc1C(N)=O [Compound 140] | 2.52 µg/mL | 0.4309 µg/mL | 4.636 µg/mL |  |  |  |
| CN(C)CCNC(=O)c1cc(C(=O)NCCN(C)C)c(OCCCCCN)cc1OCCCCCN [Compound 4] | inactive | 47.94 µg/mL | 84.66 µg/mL |  |  |  |
| COc1ccc(NC(=O)[C@@H](CCCNC(=N)N)NC(=O)c2cc(NC(=O)[C@@H](CCCNC(=N)N)NC(=O)c3cc(NC(=O)[C@@H](CCCNC(=N)N)NC(=O)c4cc(NC(=O)[C@H](N)CO)ccc4OC)ccc3OC)ccc2OC)cc1C(N)=O [Compound 70] | 1.55 µg/mL | 0.33 µg/mL | 1.59 µg/mL |  |  |  |
| COc1ccc(NC(=O)[C@H](CCCCN)NC(=O)c2cc(NC(=O)[C@@H](N)CCCCN)ccc2OC)cc1C(=O)N[C@@H](CCCCN)C(=O)Nc1ccc(OC)c(C(=O)N[C@@H](CCCCN)C(=O)Nc2ccc(OC)c(C(=O)N[C@H](C)C(=O)O)c2)c1 [Compound 146] | 2.74 µg/mL | 1.027 µg/mL | 19.030 µg/mL |  |  |  |
| COc1ccc(NC(=O)[C@H](CCCCN)NC(=O)c2cc(NC(=O)[C@H](CCCCN)NC(=O)c3cc(NC(=O)[C@H](CCCCN)NC(=O)c4cc(NC(=O)[C@@H](N)CCCCN)ccc4OC)ccc3OC)ccc2OC)cc1C(=O)N[C@@H](Cc1ccccc1)C(=O)O [Compound 110] | 2.31 µg/mL | 0.694 µg/mL | 2.951 µg/mL |  |  |  |
| CNc1cccc(C(=O)N[C@@H](CCCCN)C(=O)Nc2ccc(OC)c(C(=O)N[C@@H](CCCCN)C(=O)Nc3ccc(OC)c(C(=O)N[C@@H](CCCCN)C(=O)Nc4ccc(OC)c(C(N)=O)c4)c3)c2)c1 [Compound 128] | 4.17 µg/mL | 1.651 µg/mL | 8.495 µg/mL |  |  |  |
| COc1ccc(NC(=O)[C@H](CCCCN)NC(=O)c2cc(NC(=O)[C@H](CCCCN)NC(=O)c3cc(NC(=O)[C@H](CCCCN)NC(=O)c4cc(C(=O)NCCCCCN)c(OC)cc4OC)ccc3OC)ccc2OC)cc1C(N)=O [Compound 102] | 3.32 µg/mL | 0.3328 µg/mL | 2.938 µg/mL |  |  |  |
| COc1cc(OC)c(C(=O)N[C@H]2CC[C@@H](NC(=O)c3cc(C(=O)NCCN(C)C)c(OCCCCCNC(=N)N)cc3OCCCCCNC(=N)N)CC2)cc1C(=O)N[C@H]1CC[C@@H](NC(=O)c2cc(C(=O)NCCN(C)C)c(OCCCCCNC(=N)N)cc2OCCCCCNC(=N)N)CC1 [Compound 103] | >4 µg/mL | 0.23 µg/mL | 0.64 µg/mL |  |  |  |
| COc1ccc(NC(=O)[C@H](CCCCN)NC(=O)c2cc(NC(=O)[C@H](CCCCN)NC(=O)c3cc(NC(=O)[C@H](CCCCN)NC(=O)c4cccc(N(C)C(=O)[C@@H](N)CCCCN)c4)ccc3OC)ccc2OC)cc1C(N)=O [Compound 127] | 2.33 µg/mL | >15 µg/mL | inactive |  |  |  |
| COc1ccc(NC(=O)[C@@H](CCCNC(=N)N)NC(=O)c2cc(NC(=O)[C@@H](CCCNC(=N)N)NC(=O)c3cc(NC(=O)[C@@H](CCCNC(=N)N)NC(=O)c4cc(NC(C)=O)ccc4OC)ccc3OC)ccc2OC)cc1C(=O)NCCCCCN [Compound 53] | 2.08 µg/mL | 0.21 µg/mL | 1.12 µg/mL |  |  |  |
| COc1ccc(NC(=O)[C@H](CCCCN)NC(=O)c2cc(NC(=O)[C@H](CCCCN)NC(=O)c3cc(NC(=O)[C@H](CCCCN)NC(=O)c4ccc(NC(=O)[C@@H](N)CCCCN)cc4OC)ccc3OC)ccc2OC)cc1C(N)=O [Compound 129] | 2.47 µg/mL | 0.3888 µg/mL | 7.996 µg/mL |  |  |  |
